Experimental data taken from publication PMC12466090 (Photochemistry and Photobiology, 2025).

Legend:
[1] = in water; standard of the relative method; no reference given; cited from earlier work
[2] = UV-VIS absorption / fluorescence spectroscopy; assay type: physicochemical; conditions: fluorescence spectrum in washed cells, excitation at 600 nm (Figure S3)

Molecule	singlet oxygen quantum yield (ΦΔ) of the reference standard [1]	form bound to cells (fluorescence spectrum after uptake) [2]
CN(C)c1ccc2nc3ccc(=[N+](C)C)cc-3sc2c1 [methylene blue]	0.52	–
cRGDfK (Arg–Gly–Asp–D–Phe–Lys) (head to tail) [SiPc‐2c(RGDfK)]	–	monomeric form is bound to cells
